{"source": "patent US10695330B2", "about": "“Methods of treatment” (Global Blood Therapeutics, Inc., priority 2015, dated 2020)", "tested_on": "activated neutrophils", "experiment": "Oxidative burst in activated neutrophils", "assay_type": "cell-based", "conditions": "in vitro", "from_the_text": "Reactive oxygen species (ROS) released from activated white blood cells cause lung injury as well as fibrotic changes in patients with IPF. […] Thus, the compounds described herein could also provide a method to inhibit the adverse effects of inflammation in a patient. Reduction in systemic pro-inflammatory cytokines (tumor necrosis alpha and interleukin-6) also has the potential to exert a broad anti-inflammatory effect which would supplement the beneficial effect of alleviation of hypoxemia via increased hemoglobin-O2 affinity."}
{"smiles": "O=Cc1ccc(CO)o1", "note": "[Compound 5-HMF, 5-hydroxymethyl-2-furfural, reference compound]", "values": [{"measurement": "anti-oxidative activity (oxidative burst)", "value": "does not display this activity"}]}
